This note sets out measurements from ChEMBL document CHEMBL1821624, “Synthesis, evaluation against Leishmania amazonensis and cytotoxicity assays in macrophages of sixteen new congeners Morita-Baylis-Hillman adducts” (Eur J Med Chem, 2011).

The term CC50 denotes the concentration at which the toxic effect on the cells reaches its halfway point. A high value points to lower toxicity to the cells. In general, IC50 refers to the point on the concentration scale where inhibition reaches its midpoint.

Data set [1] can be described thus: Cytotoxicity against Swiss mouse peritoneal macrophages after 24 hrs by MTT assay. The format is cell-based, Peritoneal macrophage cell.
The subject of data set [2] is Leishmania amazonensis. Nature of the data set: Antileishmanial activity against Leishmania amazonensis IFLA/BR/67/PH8 promastigotes […] assessed as inhibition of parasite growth after 72 hrs by MTT assay. Type of data set: functional, organism-based. Particulars: IFLA/BR/67/PH8, 72 h. On the technique in general: Formazan colour is commonly taken as a measure of viable cells.

A short description of data set [3]: Selectivity index, ratio of CC50 for Swiss mouse peritoneal macrophages to IC50 for Leishmania amazonensis IFLA/BR/67/PH8 promastigotes. The format is functional.
The subject of data set [4] is Leishmania amazonensis. Nature of the data set: Antileishmanial activity against Leishmania amazonensis. The format is functional, organism-based.

SMILES strings stand for the structures.

`C=C(C(=O)OCCO)C(O)c1ccc([N+](=O)[O-])cc1` (racemic): in data set [1], the CC50 at 24 h was 46.9 µM. Also, the IC50 in the data set with Leishmania amazonensis [2] was 53 µM. Besides, the “Ratio CC50/IC50” value in data set [3] came out at 0.88.
Taken in the same sequence, the figures for `C=C(C(=O)OCCO)C(O)c1ccc(Br)cc1` (racemic) were 157 µM, 56.7 µM and 2.77.
In data set [1], `C=C(C(=O)OCCC)C(O)c1ccc2ccccc2c1` (racemic) gave a CC50 at 24 h of 149 µM. For the same molecule, in the data set with Leishmania amazonensis [2], the 50% inhibitory concentration (IC50) was 54.5 µM. Besides, in data set [3], the “Ratio CC50/IC50” value amounted to 2.59.
Taken in the same sequence, the figures for `C=C(C(=O)OCCC)C(O)c1ccccn1` (racemic) were 715 µM, 194 µM and 3.68.
Taken in the same sequence, the figures for `C=C(C(=O)OCCO)C(O)c1ccncc1` (racemic) were 458 µM, 382 µM and 1.2.
Taken in the same sequence, the figures for `C=C(C(=O)OCCC)C(O)c1ccncc1` (racemic) were 272 µM, 149 µM and 1.83.
For `C=C(C(=O)OCCO)C(O)c1ccccc1[N+](=O)[O-]` (racemic), in data set [1], half-maximal cytotoxicity (CC50 at 24 h) was put at 112 µM. Further, the IC50 with Leishmania amazonensis [2] was found to be 20.5 µM. Moreover, in data set [3], the “Ratio CC50/IC50” value worked out at 5.43.
For `C=C(C(=O)OCCC)C(O)c1ccccc1[N+](=O)[O-]` (racemic), the CC50 at 24 h in data set [1] was 135 µM. The IC50 with Leishmania amazonensis [2] stood at 28.4 µM. In addition, the “Ratio CC50/IC50” value in data set [3] came to 4.75.
`C=C(C(=O)OCCC)C(O)c1cccc([N+](=O)[O-])c1` (racemic) returned a 50% cytotoxic concentration (CC50) at 24 h in data set [1] of 114 µM. In the data set on Leishmania amazonensis [2], the IC50 amounted to 72.2 µM. In data set [3], the “Ratio CC50/IC50” value is listed as 1.57.
`C=C(C(=O)OCCO)C(O)c1cccnc1` (racemic) came in with a 50% cytotoxic concentration (CC50) at 24 h in data set [1] of 418 µM. The IC50 in the data set with Leishmania amazonensis [2] was 324 µM. Moreover, the “Ratio CC50/IC50” value in data set [3] is 1.29.
The like results for `C=C(C(=O)OCCC)C(O)c1ccc(Br)cc1` (racemic) were, in that order, 125 µM, 74.7 µM and 1.67.
The like results for `C=C(C(=O)OCCO)C(O)c1ccc2ccccc2c1` (racemic) were, in that order, 118 µM, 52.5 µM and 2.24.
Taken in the same sequence, the figures for `C=C(C(=O)OCCC)C(O)c1ccc([N+](=O)[O-])cc1` (racemic) were 122 µM, 52 µM and 2.33.
In the case of `C=C(C(=O)OC)C(O)c1ccccc1[N+](=O)[O-]` (centres undefined), the IC50 in the data set on Leishmania amazonensis [4] came out at 62 µM.
Turning to `C=C(C(=O)OCCO)C(O)c1ccccn1` (racemic), the half-maximal cytotoxic concentration (CC50) at 24 h in data set [1] came to 749 µM. For the same molecule, the IC50 in the data set on Leishmania amazonensis [2] came to 266 µM. In data set [3], the “Ratio CC50/IC50” value is 2.81.
`C=C(C(=O)OCCO)C(O)c1cccc([N+](=O)[O-])c1` (racemic) gave a CC50 at 24 h in data set [1] of 69 µM. Besides, the 50% inhibitory concentration (IC50) with Leishmania amazonensis [2] stood at 64.6 µM. Also, the “Ratio CC50/IC50” value in data set [3] turned out to be 1.06.
Taken in the same sequence, the figures for `C=C(C(=O)OCCC)C(O)c1cccnc1` (racemic) were 384 µM, 211 µM and 1.81.
